In this test the target is T1, histamine H4 receptor (Homo sapiens, UniProt Q9H3N8).
T1 construct: expressed in transfected cells; host or cells: CHO cells
Briefly: H4 binding, method 2 ([3H]-histamine binding with Ysi WGA beads on CHO cell membranes). The following applies: H4 binding, method 2, Ki calculated from IC50 (Cheng-Prussoff). Here is the method:
Cell pellets from CHO cells expressing the histamine H4 receptor were homogenised in ice-cold 50 mM Tris-HCl/0.5 mM CaCl2 buffer containing a protease inhibitor cocktail (Roche®, United Kingdom) using a ground glass homogeniser. Homogenates were centrifuged at 48000 g for 30 min at 4° C. The membrane pellet was resuspended in fresh buffer and the centrifugation step was repeated as described above. The membrane pellet was resuspended in 50 mM Tris-HCl in the same volume as the original cell pellet. Aliquots of membrane preparations were stored at −80° C. and were used for [^3H]-Histamine binding experiments.
Cell membranes (15 μg/well) were pre-incubated for 120 min shaking at 4° C. with Ysi WGA beads (250 μg/well) in 50 mM Tris-HCl (pH 7.4) followed by centrifugation at 1500 rpm for 5 minutes and resuspension in 50 mM Tris-HCl (pH 7.4). The membrane/bead mixture (15 μg membrane/250 μg beads well) was incubated for 90 minutes shaking at room temperature with 6.5 nM [2,5-^3H] Histamine dihydrochloride (30-60 Ci/mmol) in 50 mM Tris-HCl (pH 7.4), with or without competing H4 ligands. Non-specific binding was defined with 10 μM JNJ7777120. Bound radiolabel was determined using scintillation counting techniques after 90 minutes.

Like-named read-outs stand apart in the source and are kept apart here.

T1 sequence (Q9H3N8 whole entry): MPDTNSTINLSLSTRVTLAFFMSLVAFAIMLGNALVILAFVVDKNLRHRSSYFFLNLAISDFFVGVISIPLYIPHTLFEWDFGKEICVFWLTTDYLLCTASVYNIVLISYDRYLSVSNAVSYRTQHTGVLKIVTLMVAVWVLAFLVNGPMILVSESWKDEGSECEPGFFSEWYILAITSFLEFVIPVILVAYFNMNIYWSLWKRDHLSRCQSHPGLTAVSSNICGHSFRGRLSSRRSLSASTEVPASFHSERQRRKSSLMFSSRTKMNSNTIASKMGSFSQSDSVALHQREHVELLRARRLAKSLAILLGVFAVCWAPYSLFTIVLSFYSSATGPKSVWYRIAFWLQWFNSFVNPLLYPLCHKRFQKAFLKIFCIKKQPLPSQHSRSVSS

Consider `CC(C)(C)CCNc1cc(N2C[C@H]3CCCN[C@H]3C2)nc(N)n1` (racemic) [Example 23, N^4-(3,3-Dimethylbutyl)-6-[(4aR*,7aR*)-octahydro-6H-pyrrolo[3,4-b]pyridin-6-yl]pyrimidine-2,4-diamine], for which, under “read-out: Method 2 (Ki (nM))”, the Ki is 824 nM.
Take `CC(C)Nc1cc(N2C[C@H]3CCCN[C@H]3C2)nc(N)n1` (racemic) [Example 24, N^4Isopropyl-6-[(4aR*,7aR*)-octahydro6H-pyrrolor[3,4-b]pyridin-6-yl]pyrimidine-2,4-diamine]: the Ki (Method 2 (Ki (nM))) was 30.8 nM.
With `CNc1cc(N2C[C@H]3CCCN[C@H]3C2)nc(N)n1` (racemic) [Example 25, N^4-Methyl-6-[(4aR*,7aR*)-octahydro-6H-pyrrolo[3,4-b]pyridin-6-yl]pyrimidine-2,4-diamine], the Ki (read-out: Method 2 (Ki (nM))) was 154 nM.
Turning to `CCNc1cc(N2C[C@H]3CCCN[C@H]3C2)nc(N)n1` (racemic) [Example 26, N^4-Ethyl-6-[(4aR*,7aR*)-octahydro-6H-pyrrolo[3,4-b]pyridin-6-yl]pyrimidine-2,4-diamine], the Ki (Method 2 (Ki (nM))) is 30 nM.
Still for that read-out and setting: the value for `CC(C)CNc1cc(N2C[C@H]3CCCN[C@H]3C2)nc(N)n1` (racemic) [Example 27, N^4-Isobutyl-6-[(4aR*,7aR*)-octahydro-6H-pyrrolo[3,4-b]pyridin-6-yl]pyrimidine-2,4-diamine] was 22.4 nM; that for `Nc1nc(NCC2CC2)cc(N2C[C@H]3CCCN[C@H]3C2)n1` (racemic) [Example 28, N^4-(Cyclopropylmethyl)-6-[(4aR*,7aR*)-octahydro-6H-pyrrolo[3,4-b]pyridin-6-yl] pyrimidine-2,4-diamine] was 21.3 nM.
Same read-out and setting: the value for `CC(C)CCNc1cc(N2C[C@H]3CCCN[C@H]3C2)nc(N)n1` (racemic) [Example 29, N^4-(3-Methylbutyl)-6-[(4aR*, 7aR*)-octahydro-6H-pyrrolo [3,4-b]pyridin-6-yl] pyrimidine-2,4-diamine] was 82.9 nM; that for `Nc1nc(NC2CC2)cc(N2C[C@H]3CCCN[C@H]3C2)n1` (racemic) [Example 31, N^4-Cyclopropyl-6-[(4aR*,7aR*)-octahydro-6H-pyrrolo[3,4-b]pyridin-6-yl] pyrimidine-2,4-diamine] was 21.1 nM; that for `Nc1nc(NC2CCC2)cc(N2C[C@H]3CCCN[C@H]3C2)n1` (racemic) [Example 32, N^4-Cyclobutyl-6-[(4aR*,7aR*)-octahydro-6H-pyrrolo[3,4-b]pyridin-6-yl] pyrimidine-2,4-diamine] was 20.9 nM.
Consider `Nc1nc(NCC2CCCC2)cc(N2C[C@H]3CCCN[C@H]3C2)n1` (racemic) [Example 33, N^4-(Cyclopentylmethyl)-6-[(4aR*,7aR*)-octahydro-6H-pyrrolo[3,4-b]pyridin-6-yl] pyrimidine-2,4-diamine], for which the Ki (Method 2 (Ki (nM))) was 84.1 nM.
`CC(C)(C)CNc1cc(N2C[C@H]3CCCN[C@H]3C2)ncn1` (racemic) [Example 127, N-(2,2-Dimethylpropyl)-6-[(4aR*,7aR*)-octahydro-6H-pyrrolo[3,4-bjpyridin-6-yl]pyrimidin-4-amine]: the inhibition constant Ki (Method 2 (Ki (nM))) was 65.8 nM.
For the compound `CC(C)(C)CCNc1cc(N2C[C@H]3CCCN[C@H]3C2)ncn1` (racemic) [Example 328, N-(3,3-Dimethylbutyl)-6-[(4aR*,7aR*)-octahydro-6H-pyrrolo[3,4-b]pyridin-6-yl]pyrimidin-4-amine], for the setting “read-out: Method 2 (Ki (nM))”, the Ki is 554 nM.
Take `c1nc(NCC2CC2)cc(N2C[C@H]3CCCN[C@H]3C2)n1` (relative stereo) [Example 123, N-(Cyclopropylmethyl)-6-[(4aR*,7aR*)-octahydro-6H-pyrrolo[3,4-b]pyridin-6-yl]pyrimidin-4-amine]: for the setting “read-out: Method 2 (Ki (nM))”, the Ki is 103 nM.
Consider `CC(C)CNc1cc(N2C[C@H]3CCCN[C@H]3C2)ncn1` (relative stereo) [Example 125, N-Isobutyl-6-[(4aR*,7aR*)-octahydro-6H-pyrrolo[3,4-b]pyridin-6-yl]pyrimidin-4-amine], for which, for the setting “read-out: Method 2 (Ki (nM))”, the inhibition constant (Ki) was 223 nM.
Turning to `CCNc1cc(N2CC[C@@H](NC)C2)nc(N)n1` [Example 12, N^4-Ethyl-6-[(3R)-3-(methylamino)pyrrolidin-1-yl]pyrimidine-2,4-diamine], the inhibitory constant (Ki) (read-out: Method 2 (Ki (nM))) is 52.4 nM.
Same read-out and setting: the value for `CCNc1cc(N2CC[C@@H](NC)C2)ncn1` [Example 13, N-Ethyl-6-[(3R)-3-(methyl-amino)pyrrolidin-1-yl]pyrimidin-4-amine] was 51.8 nM; that for `CN[C@@H]1CCN(c2cc(NCC3CC3)ncn2)C1` [Example 15, N-(Cyclopropylmethyl)-6-[(3R)-3-(methylamino)pyrrolidin-1-yl] pyrimidin-4-amine] was 19.2 nM; that for `CCNc1cc(N2CC[C@H](NC)C2)ncn1` [Example 16, N-Ethyl-6-[(3S)-3-(methyl-amino)pyrrolidin-1-yl] pyrimidin-4-amine] was 1740 nM.
`CN[C@H]1CCN(c2cc(NCCC(C)(C)C)ncn2)C1` [Example 17, N-(3,3-Dimethylbutyl)-6-[(3S)-3-(methylamino)pyrrolidin-1-yl]pyrimidin-4-amine]: where the note is “read-out: Method 2 (Ki (nM))”, the Ki is 483 nM.
The same measure, in the same setting: the value for `CN(C)[C@@H]1CCN(c2cc(NCCC(C)(C)C)ncn2)C1` [Example 18, 6-[(3R)-3-(Dimethylamino)pyrrolidin-1-yl]-N-(3,3-dimethylbutyl)pyrimidin-4-amine] was 387 nM; that for `CN(C)[C@@H]1CCN(c2cc(NCC3CC3)ncn2)C1` [Example 19, N-(Cyclopropylmethyl)-6-[(3R)-3-(dimethylamino)pyrrolidin-1-yl]pyrimidin-4-amine] was 132 nM.
As to `CCNc1cc(N2CC[C@@H](N(C)C)C2)ncn1` [Example 21, 6-[(3R)-3-(Dimethylamino)pyrrolidin-1-yl]-N-ethyl-pyrimidin-4-amine], where the note is “read-out: Method 2 (Ki (nM))”, the Ki was 722 nM.
On the same count and under the same terms, the value for `CCCNc1cc(N2C[C@H]3CN(C)C[C@H]3C2)nc(N)n1` [Example 34, 6-[(3aR*,6aS*)-5-Methylhexahydropyrrolo[3,4-c]pyrrol-2(1H)-yl]-N^4-propylpyrimidine-2,4-diamine] was 452 nM; that for `CNc1cc(N2C[C@H]3CN(C)C[C@H]3C2)nc(N)n1` [Example 35, N^4-Methyl-6-[(3aR*,6aS*)-5-methylhexahydro-pyrrolo[3,4-c]pyrrol-2(1H)-yl]pyrimidine-2,4-diamine] was 662 nM; that for `CCNc1cc(N2C[C@H]3CN(C)C[C@H]3C2)nc(N)n1` [Example 36, N^4-Ethyl-6-[(3aR*,6aS*)-5-methylhexahydro-pyrrolo[3,4-c]pyrrol-2(1H)-yl]pyrimidine-2,4-diamine] was 1620 nM.
The same measure, in the same setting: the value for `CC(C)CNc1cc(N2C[C@H]3CN(C)C[C@H]3C2)nc(N)n1` [Example 37, N^4-Isobutyl-6-[(3aR*,6aS*)-5-methylhexahydro-pyrrolo[3,4-c]pyrrol-2(1H)-yl]pyrimidine-2,4-diamine] was 181 nM; that for `CN1C[C@@H]2CN(c3cc(NCC4CC4)nc(N)n3)C[C@@H]2C1` [Example 38, N^4-(Cyclopropylmethyl)-6-[(3aR*,6aS*)-5-methylhexahydro-pyrrolo[3,4-c]pyrrol-2(1H)-yl]pyrimidine-2,4-diamine] was 128 nM.
`CN1C[C@@H]2CN(c3cc(NCC(C)(C)C)nc(N)n3)C[C@@H]2C1` [Example 39, N^4-(2,2-Dimethylpropyl)-6-[(3aR*,6aS*)-5-methylhexahydro-pyrrolo[3,4-c]pyrrol-2(1H)-yl]pyrimidine-2,4-diamine]: the Ki (Method 2 (Ki (nM))) was 88.9 nM.
`CN1C[C@@H]2CN(c3cc(NCCC(C)(C)C)nc(N)n3)C[C@@H]2C1` [Example 40, N^4-(3,3-Dimethylbutyl)-6-[(3aR*,6aS*)-5-methylhexahydro-pyrrolo[3,4-c]pyrrol-2(1H)-yl]pyrimidine-2,4-diamine]: the Ki (read-out: Method 2 (Ki (nM))) was 192 nM.
The same measure, in the same setting: the value for `CC(C)CCNc1cc(N2C[C@H]3CN(C)C[C@H]3C2)nc(N)n1` [Example 41, N^4-(3-Methylbutyl)-6-[(3aR*,6aS*)-5-methylhexahydro-pyrrolo[3,4-c]pyrrol-2(1H)-yl]pyrimidine-2,4-diamine] was 202 nM; that for `CN1C[C@@H]2CN(c3cc(NC4CC4)nc(N)n3)C[C@@H]2C1` [Example 42, N^4-Cyclopropyl-6-[(3aR*,6aS*)-5-methylhexahydro-pyrrolo[3,4-c]pyrrol-2(1H)-yl]pyrimidine-2,4-diamine] was 433 nM.
Consider `CN1C[C@@H]2CN(c3cc(NC4CCC4)nc(N)n3)C[C@@H]2C1` [Example 43, N^4-Cyclobutyl-6-[(3aR*,6aS*)-5-methylhexahydro-pyrrolo[3,4-c]pyrrol-2(1H)-yl]pyrimidine-2,4-diamine], for which the Ki (read-out: Method 2 (Ki (nM))) was 236 nM.
Turning to `CNC1CN(c2cc(NCC3CC3)ncn2)C1` [Example 44, Cyclopropylmethyl-[6-(3-methylamino-azetidin-1-yl)-pyrimidin-4-yl]-amine], for the setting “read-out: Method 2 (Ki (nM))”, the inhibition constant (Ki) was 20.5 nM.
Same read-out and setting: then `CNC1CN(c2cc(NCc3cccc(F)c3)ncn2)C1` [Example 45, (3-Fluoro-benzyl)-[6-(3-methylamino-azetidin-1-yl)-pyrimidin-4-yl]-amine], with 420 nM; and `CNC1CN(c2cc(NC(C)C)ncn2)C1` [Example 46, N-Isopropyl-6-[3-(methylamino)azetidin-1-yl]pyrimidin-4-amine], with 40.1 nM.

As usually defined, the Ki is a measure of affinity in units of concentration, obtained from inhibition or displacement.

The values are drawn from patent US7943628B2, “Pyrimidine derivatives” (Pfizer Limited, priority 2005, dated 2011).
